Results taken from the SangsterLogP compilation.

Experiment: method code SF-AS, from DOI: 10.1016/0045-6535(94)00381-4

Row | SMILES | logP
1 | CCOC(=O)C1(S(=O)(=O)c2ccc(C)cc2)CCC1 | 2.31
2 | COC(=O)CS(=O)(=O)c1ccc([N+](=O)[O-])cc1Cl | 1.45
3 | Cc1ccc(S(=O)(=O)C2(C(=O)OC(C)C)CCCCC2)cc1 | 3.21
4 | COC(=O)C1(S(=O)(=O)c2ccccc2)CCCC1 | 1.98
5 | COC(=O)C1(S(=O)(=O)c2ccccc2)CC1 | 1.43
6 | CC(C)OC(=O)C1(S(=O)(=O)c2ccc(Cl)cc2)CC1 | 2.64
7 | COC(=O)C1(S(=O)(=O)c2ccc(Br)cc2)CCCC1 | 2.73
8 | CC(C)OC(=O)C1(S(=O)(=O)c2ccc(Cl)cc2)CCCC1 | 3.16
9 | COC(=O)CS(=O)(=O)c1ccccc1 | 0.93
10 | COC(=O)C1(S(=O)(=O)c2ccc(Cl)cc2)CCC1 | 2.28
11 | CC(C)OC(=O)C1(S(=O)(=O)c2ccc([N+](=O)[O-])cc2)CCC1 | 2.36
12 | COC(=O)CS(=O)(=O)c1ccc(Cl)cc1 | 1.31
13 | CCOC(=O)C1(S(=O)(=O)c2ccc(C)cc2)CC1 | 2.23
14 | CC(C)OC(=O)C1(S(=O)(=O)c2ccc(Cl)cc2)CCCCCC1 | 3.83
15 | COC(=O)C1(S(=O)(=O)c2ccc(Br)cc2)CCC1 | 2.45
16 | COC(=O)C1(S(=O)(=O)c2ccc([N+](=O)[O-])cc2)CC1 | 1.33

Continued, values first:

Row | logP | SMILES
17 | 2.84 | CC(C)OC(=O)C1(S(=O)(=O)c2ccc([N+](=O)[O-])cc2)CCCCC1
18 | 2.54 | COC(=O)C1(S(=O)(=O)c2ccc(C)cc2)CCCCC1
19 | 2.04 | CC(C)OC(=O)CS(=O)(=O)c1ccc(Cl)cc1
20 | 2.94 | COC(=O)C1(S(=O)(=O)c2ccc(Br)cc2)CCCCC1
21 | 1.52 | COC(=O)CS(=O)(=O)c1ccc(Br)cc1
22 | 2.3 | COC(=O)C1(S(=O)(=O)c2ccccc2)CCCCC1
23 | 2.88 | Cc1ccc(S(=O)(=O)C2(C(=O)OC(C)C)CCCC2)cc1
24 | 3.49 | CC(C)OC(=O)C1(S(=O)(=O)c2ccc(Cl)cc2)CCCCC1
25 | 2.52 | Cc1ccc(S(=O)(=O)C2(C(=O)OC(C)C)CC2)cc1
26 | 2.32 | COC(=O)C1(S(=O)(=O)c2ccc(Br)cc2)CC1
27 | 1.77 | COC(=O)C1(S(=O)(=O)c2ccc(C)cc2)CC1
28 | 1.63 | COC(=O)C1(S(=O)(=O)c2ccccc2)CCC1
29 | 2.68 | CC(C)(C)OC(=O)C1(S(=O)(=O)c2ccc(Cl)cc2)CC1
30 | 3.41 | CC(C)OC(=O)C1(S(=O)(=O)c2ccc([N+](=O)[O-])cc2)CCCCCC1
31 | 2.03 | COC(=O)C1(S(=O)(=O)c2ccc(Cl)cc2)CC1
32 | 2.05 | CC(C)OC(=O)C1(S(=O)(=O)c2ccc([N+](=O)[O-])cc2)CC1
